Laboratory results from patent US6423739B1, “Method for aiding cerebral recovery following neurodegeneration” (Daiichi Pharmaceutical Co., Ltd., priority 2000, dated 2002).

What was measured:
[1] = system: patients after a stroke (cerebral infarction or cerebral hemorrhage); conditions: post-stroke patients, Ohtomo et al. 1994; cited from earlier work
[2] = system: rats with cerebral embolism; experiment: Watermaze spatial learning and retention test in rats with cerebral embolism; assay type: in vivo, rat
Excerpt: The mechanism of action of nefiracetam for this indication, which is not bound to the nootropic activity of the drug, is unknown, but it is believed that its surprising effect in improving ADL of a patient after a stroke or in the recovery of, or at least in improving the recovery of, a post-stroke patient, is due to a true brain repair. This assumption is confirmed by the effect of nefiracetam on spatial learning and retention in rats with cerebral embolism, treated for 9 days with nefiracetam or vehicle, starting within 24 hours of embolization.
In male Wistar rats weighing 190-220 g a total of 700 microspheres (48 μm in diameter) were injected into the right common carotid artery of each animal, whereby a quasi-immediate embolism occurs. The embolized animals were randomly divided into 2 groups, each of 13 animals with same neurological deficit, designated as “Control” (embolism plus Vehicle), or “Nefiracetam” (embolism plus nefiracetam 10 mg/kg/day). In addition, a group of 13 “Normal (Sham)” non-embolized animals were used. The administration of nefiracetam or of its vehicle started within the same day of embolization and treatment lasted 9 days. Seven days after embolization, the embolized rats were submitted to a watermaze test, said watermaze being adapted from the Morris water task. The time taken to find the platform (latency) was determined. […]

[3] = system: hippocampal and cortical rat embryo neurons; experiment: Neurite outgrowth in primary cultures of hippocampal and cortical rat embryo neurons; assay type: cell-based
post-stroke patients = experiment: Controlled clinical trial against placebo, symptom scale measuring Activities of Daily Living; assay type: in vivo, human
Excerpt: The activity of nefiracetam to improve ADL in post-stroke patients has been discovered during a controlled clinical trial against placebo. The compound has been administered orally to 32 post-stroke patients within six months after the event whilst, concurrently, 27 patients received placebo. The two groups of patients were followed during at least 8 weeks and followed up at the end of week 4 and at the end of week 8 on a symptom scale measuring Activities of Daily Living. […] Among the above 59 patients, 19 received nefiracetam and 10 received placebo within three months after stroke. […] The difference was significant (p=0.035, χ^2 test). […] Thus nefiracetam, when administered early after the event, appears to be the first drug which is able to induce a recovery from stroke or, at least, to improve the recovery from stroke.

For `Cc1cccc(C)c1NC(=O)CN1CCCC1=O` [Nefiracetam, N-(2,6-dimethylphenyl)-2-(2-oxo-1-pyrrolidinyl)acetamide], the “Activities of daily living, nefiracetam vs placebo group” value [1] is listed as “no significant difference between the two groups”, the “Persistence of the effect after washout” value ([2]; day 17 after embolization) is listed as “maintained even after washout” and the “Difference in learning ability versus vehicle-treated (control) brain-injured animals” value ([2]; days 7-9 post-embolism, t-test, p<0.05 compared to control) is listed as “statistically significant”. The “Neurotrophic effect: neurite outgrowth” value ([3]; concentrations of 0.1, 1, 10 and 100 micromoles/l) was “significantly increasing neurite outgrowth”, the “Neurotrophic effect in combination with bFGF” value ([3]; hippocampal neurons) was “potentiated by bFGF” and the “Patients showing a moderate or remarkable improvement (Activities of Daily Living)” value (post-stroke patients; 19 patients who received nefiracetam within three months after stroke, p=0.035 vs placebo, chi2 test) was roughly 70%. The Intellectual dysfunction (post-stroke patients; early treatment after stroke) was “dramatically improved in a high percent of nefiracetam-treated patients”, the “Neurological signs and incontinence” value (post-stroke patients; early treatment after stroke) was “tends to improve” and the “Improvement on symptom scale measuring Activities of Daily Living” value (post-stroke patients; oral, 32 post-stroke patients treated within six months after the event, followed at week 4 and week 8) was “moderate or remarkable improvement”.
